In patent publication US20100197608A1, “USE OF MELANOTROPHIN-POTENTIATING FACTOR AS A THERAPEUTIC AGENT” (priority 2007, published 2010):
Where a SMILES comes first, the peptide text is derived from it.

Tests used:
Pseudomonas aeruginosa = type: cell-based; conditions: 5 micrograms per ml
in vitro [1] = conditions: human, CEM-SS cells
[2] = Cytotoxicity in HepG2-2.2.15 cells (dye uptake); conditions: human
MRSA = conditions: 5 micrograms per ml
Streptococcus pneumoniae = type: cell-based; conditions: 5 micrograms per ml
in vitro [3] = conditions: human, MRC-5 cells
HIV-1IIIB = assay: HIV-1 antiviral assay (CPE reduction) in CEM-SS cells; type: cell-based; conditions: peptide 10 micrograms per ml; 6 days post-infection; MTS
CEM-SS cells = assay: Cytotoxicity in CEM-SS cells (MTS); conditions: peptide 10 micrograms per ml
MRC-5 cells = conditions: human, 6 days

## NCCCC[C@H](NC(=O)[C@@H](N)CCCCN)C(=O)NCC(=O)N[C@@H](CCC(=O)O)C(=O)O [MPF, Lys-Lys-Gly-Glu-OH] (H-KKGE-OH)
Pseudomonas aeruginosa
  % inhibition: 0.0%
In vitro [1]
  viability at 10 micrograms per ml: 100%
[2]
  viability at 144 h, 10 micrograms per ml: 100%
MRSA
  % inhibition: 0.0%
Streptococcus pneumoniae
  % inhibition: 0.0%
In vitro [3]
  viability at 144 h: 96.1%

## Cc1cn([C@H]2C[C@H](N=[N+]=[N-])[C@@H](CO)O2)c(=O)[nH]c1=O [AZT]
HIV-1IIIB
  % CPE reduction in HIV-1 infected CEM-SS cells: 99%
CEM-SS cells
  % Cell viability: 97%

## Nc1nc(O)c2ncn(COC(CO)CO)c2n1 [Ganciclovir]
MRC-5 cells
  % Cell viability: 100%

## CC(C)(C)NC(=O)[C@@H]1CN(Cc2cccnc2)CCN1C[C@@H](O)C[C@@H](Cc1ccccc1)C(=O)N[C@H]1c2ccccc2C[C@H]1O [Indinavir, indinavir]
HIV-1IIIB
  % CPE reduction in HIV-1 infected CEM-SS cells: 100%
